The values that follow come from ChEMBL document CHEMBL1201862, “PubChem BioAssay data set” (2004).

Common to all, as to assay: NCI tumour cell line growth inhibition, 48 h
Assay [1] has as its system ACHN.
Assay [2] relates to HCT-15.
For assay [3], the system named is HL-60.
Assay [4] has as its system HOP-92.
The test system of assay [5] is IGROV-1.
The subject of assay [6] is K562.
Assay [7] deals with KM12.
Assay [8] concerns M14.
Assay [9] relates to NCI-H226.
The subject of assay [10] is RXF 393.
Assay [11] deals with SF-539.
The subject of assay [12] is SK-MEL-28.
Assay [13] has as its system SK-MEL-2.
For assay [14], the system named is SK-MEL-5.
In assay [15] the test system is SK-OV-3.
In assay [16] the test system is SNB-75.
For assay [17], the system named is SW-620.
For assay [18], the system named is UACC-257.

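Tested at 5 concentrations; 48 h exposure; 96-well plates; endpoints linearly interpolated, else capped at highest concentration. GI50 is the concentration that inhibits growth by half.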 Activity calls are given as the source filed them. Rule as the data show it: active = GI50 up to about 1.1 µM and inactive = higher. Bounds are passed on as bounds.

`O=C(CCN1CCCCC1CO)Nc1ccc2c(c1)C(=O)c1ccc(NC(=O)CCN3CCCCC3CO)cc1C2=O` (configuration not stated): the GI50 in assay [1] is 11.8 µM (inactive); in assay [2], 14.2 µM; in [3], 10.6 µM (inactive); in assay [4], 15.5 µM (inactive); in assay [5], 9.68 µM (inactive); in assay [6], 6.25 µM (inactive). The GI50 in assay [7] is 4.34 µM (inactive); in [8] it was 10.4 µM (inactive); in assay [9], 18.8 µM (inactive); in assay [10], 2 µM (inactive); in assay [11] it was 3.6 µM (inactive); in assay [12] it was 12.9 µM (inactive). Also, the GI50 in [13] was 4.58 µM (inactive); in assay [14], 15.4 µM (inactive); in [15], 13.7 µM (inactive); in assay [16] it was 4.28 µM (inactive); in assay [17], 3.64 µM (inactive); in assay [18], 14.4 µM (inactive).

On to `N#CN=C(NCc1ccccc1)NCc1ccccc1`, for which the GI50 in assay [1] was > 64.9 µM (inactive); in assay [2], greater than 40.3 µM; in [3] it was > 100 µM (inactive); in assay [4], > 100 µM (inactive); in [5], > 100 µM (inactive); in assay [6], > 75.3 µM (inactive). The GI50 in assay [7] is > 100 µM (inactive); in assay [8] it was > 100 µM (inactive); in assay [9], > 100 µM (inactive); in assay [10], > 48.6 µM (inactive); in assay [11], > 100 µM (inactive); in assay [12], > 100 µM (inactive). The GI50 in assay [13] was > 100 µM (inactive); in assay [14], > 100 µM (inactive); in assay [15], > 100 µM (inactive); in [16] it was > 100 µM (inactive); in assay [17] it was > 44 µM (inactive); in assay [18], > 100 µM (inactive).

Regarding `O=C1OC(c2ccccc2)=N/C1=C\c1cccc2ccccc12`, the GI50 in assay [1] is > 100 µM (inactive); in assay [2], greater than 100 µM; in [3], > 100 µM (inactive); in [4], 52.4 µM (inactive); in assay [5] it was > 100 µM (inactive); in [6] it was > 100 µM (inactive). Also, the GI50 in [7], in [8], in assay [9], in assay [10], in assay [11] and in [12] was > 100 µM (inactive) in each case. Also, the GI50 in assay [13], in [14], in assay [15], in [16], in assay [17] and in [18] was > 100 µM (inactive) throughout.

Regarding `COC(=O)[C@@]12C(=O)CCC(=O)C1C1C(=CC2C)O[C@@H]2OC3(CCCCC3)O[C@H]12` (some centres not stated), the GI50 in [1] was > 55.1 µM (inactive); in assay [2], 54.2 µM; in assay [3] it was 25.8 µM (inactive); in assay [4] it was 40.5 µM (inactive); in [5] it was > 94.6 µM (inactive); in [6] it was 40.3 µM (inactive). For the same molecule, the GI50 in [7] was 64.1 µM (inactive); in [8], > 100 µM (inactive); in assay [9] it was > 100 µM (inactive); in assay [10] it was 69.2 µM (inactive); in assay [11], > 100 µM (inactive); in assay [12], 97.3 µM (inactive). The GI50 in [13] was > 100 µM (inactive); in assay [14], > 100 µM (inactive); in assay [15], > 100 µM (inactive); in assay [16], > 85.1 µM (inactive); in assay [17] it was 48.1 µM (inactive); in [18], > 100 µM (inactive).
